Values of other authors as cited in publication PMC10905719, “Accelerating Antimicrobial Peptide Discovery for WHO Priority Pathogens through Predictive and Interpretable Machine Learning Models” (ACS Omega, 2024).

Columns and labels:
Erythrocyte = test system: Erythrocyte
Text: page 8: 2 VGALAGFLYWHFLRKGTKM NewAMP_S Hm-AMP10 VGK S. aureus ST 88 248.00 NewAMP_S hHK-18 TGKASQFFGLM-NH S. aureus ATCC 151.63 2 25923 NewAMP_S AH-18 LKKWTGKASQFFGLM-NH S. aureus ATCC 222.71 2 25923 NewAMP_S AH-28 LKKWTLKASQFFGLM-NH S. aureus ATCC 229.89 2 25923 NewAMP_S AH-38 LKKWLKKWTGKASQFFGLM- S. aureus ATCC 9.18 NH2 25923 NewAMP_S AH-48 LKKWLKKWTLKASQFFGLM- S. aureus ATCC 4.70 NH2 25923 Sub-set Name Sequence Erythrocyte MHC(µg/mL) (% hemolysis) NewAMP_HE HJH-18 KLLKHKLLVTLA Erythrocyte 382.72a NewAMP_HE HJH-28 KLLKHKLLVTLR Erythrocyte 382.72a NewAMP_HE HJH-38 KLLKRKLLVTLR Erythrocyte 382 ...

P. aeruginosa ATCC 10148 = conditions: NewAMP_P, ref SI 3
Text: page 6: NH2 8 LKKWLKKWTPKASQFFGLM- NewAMP_E AH-5 NH E. coli ATCC 25922 4.67 2 3 […] P. aeruginosa ATCC NewAMP_P RaCa-2 KC 10148 128 3 P. aeruginosa ATCC NewAMP_P RaCa-4 FLTFPGMTFGKLLGK 10148 No inhibition 3 […] P. aeruginosa ATCC NewAMP_P RaCa-6 GKQ 10148 No inhibition 3 […] P. aeruginosa ATCC NewAMP_P RaCa-7 SVGN 10148 No inhibition 3 P. aeruginosa ATCC NewAMP_P RaCa-8 FPAIICKVSKNC 10148 No inhibition 3 P. aeruginosa ATCC NewAMP_P RaCa-9 FYFPVSRKFGGK 10148 No inhibition 3 […] P. aeruginosa ATCC NewAMP_P RaCa-10 LEII 1 ...

S. aureus ATCC 6538P = conditions: NewAMP_S, ref SI 3
Text: page 7: 29213 8 S. aureus ATCC NewAMP_S HJH-6 KKLLKKLLRLLKVLLR 29213 0.75 6 GWGAKRWGKRGWKWKRH NewAMP_S GW18 W-COONH S. aureus ATCC 6538 3.12 2 3 […] S. aureus ATCC NewAMP_S RaCa-2 KC 6538P 2-4 3 S. aureus ATCC NewAMP_S RaCa-4 FLTFPGMTFGKLLGK 6538P No inhibition 3 […] S. aureus ATCC NewAMP_S RaCa-6 GKQ 6538P No inhibition 3 […] S. aureus ATCC NewAMP_S RaCa-7 SVGN 6538P No inhibition 3 S. aureus ATCC NewAMP_S RaCa-8 FPAIICKVSKNC 6538P No inhibition 3 S. aureus ATCC NewAMP_S RaCa-9 FYFPVSRKFGGK 6538P No inhibition 3 […] S ...

E. coli ATCC 25922 = conditions: NewAMP_E, ref SI 3
Text: page 5: Table S3 NewAMP database1-9 Sub-set Name Sequence Bacterial Strain MIC (µg/mL) NewAMP_E HJH-58 KKLLRLLKVLLR E. coli ATCC 25922 1.5 3 […] NewAMP_E RaCa-2 KC E. coli ATCC 25922 4-16 3 […] NewAMP_E RaCa-6 GKQ E. coli ATCC 25922 No inhibition NewAMP_E RaCa-83 FPAIICKVSKNC E. coli ATCC 25922 No inhibition 3 […] NewAMP_E RaCa-10 LEII E. coli ATCC 25922 No inhibition 5 […] NewAMP_E Hydr_2 KLL-NH E. coli ATCC 25922 512 2 5 […] NewAMP_E Hydr_3 KAG-NH E. coli ATCC 25922 512 2 NewAMP_E Hydr_45 FLPLIGRVFSGIL ... || page 6: NH2 8 LKKWLKKWTPKASQFFGLM- NewAMP_E AH-5 NH E. coli ATCC 25922 4.67 2 3 […] P. aeruginosa ATCC NewAMP_P RaCa-2 KC 10148 128 3 P. aeruginosa ATCC NewAMP_P RaCa-4 FLTFPGMTFGKLLGK 10148 No inhibition 3 […] P. aeruginosa ATCC NewAMP_P RaCa-6 GKQ 10148 No inhibition 3 […] P. aeruginosa ATCC NewAMP_P RaCa-7 SVGN 10148 No inhibition 3 P. aeruginosa ATCC NewAMP_P RaCa-8 FPAIICKVSKNC 10148 No inhibition 3 P. aeruginosa ATCC NewAMP_P RaCa-9 FYFPVSRKFGGK 10148 No inhibition 3 […] P. aeruginosa ATCC NewAMP_P RaCa-10 LEII 1 ...

Sequence	% hemolysis at MHC (Erythrocyte) [%]	MIC (P. aeruginosa ATCC 10148)	MIC (S. aureus ATCC 6538P)	MIC (E. coli ATCC 25922)
FILYGLIRFGRLLRK [Hm-AMP4, newly published AMP of the NewAMP test set]	77	–	–	–
KKLLKKLLRLLKVLLR [HJH-6, newly published AMP of the NewAMP test set]	90	–	–	–
FLTFPGMTFGKLLGK [RaCa-4, newly published AMP of the NewAMP test set]	–	No inhibition	No inhibition	–
FYFPVSRKFGGK [RaCa-9, newly published AMP of the NewAMP test set]	–	No inhibition	No inhibition	–
FPAIICKVSKNC [RaCa-8, newly published AMP of the NewAMP test set]	–	No inhibition	No inhibition	No inhibition
SNRDFFKVNIFRLCG [RaCa-11, newly published AMP of the NewAMP test set]	–	No inhibition	No inhibition	–
